The numbers were not newly measured in US5594133A, “Crystalline acid addition salts of diastereomerically pure 1-(2,2-dimethylpropinonyloxy)-ethyl-3-cephem-4-carboxylate” (Hoechst Aktiengesellschaft, priority 1991, dated 1997), which cites them from elsewhere.

For data set [1] the following is noted: T. Nishimura et al., J. Antibiotics XL (1987) 81-90.
For data set [2] the following is noted: EP-A-0 329 008.

Consider `CC(OC(=O)OC1CCCCC1)OC(=O)C1=C(CSc2nnnn2CCN(C)C)CS[C@@H]2[C@H](NC(=O)Cc3csc(N)n3)C(=O)N12` (stereo partly drawn) [cefotiam-hexetil], for which the “influence of the stereochemistry in the 1-position of the ethyl ester group on enteral absorbability” value in data set [1] is listed as “no influence on enteral absorbability”.
Turning to `COCC1=C(C(=O)OC(C)OC(=O)C(C)(C)C)N2C(=O)C(NC(=O)/C(=N\O)c3csc(N)n3)[C@H]2SC1` (stereo partly drawn) [ester of the formula I, 1-(2,2-dimethylpropionyloxy)-ethyl 7-[2-(2-aminothiazol-4-yl)-2-(Z)-hydroxyimino-acetamido]-3-methoxymethyl-3-cephem-4-carboxylate], the “splitting by endogenous enzymes into the cephalosporin containing the free carboxyl group” value in data set [2] (after absorption) was “split again rapidly and completely”. Also, the enteral absorption entry in data set [2] (various animal species) was “absorbed well enterally”.
